{"source": "paper PMC6817881", "about": "“Antimalarial Quinoline Drugs Inhibit β-Hematin and Increase Free Hemin Catalyzing Peroxidative Reactions and Inhibition of Cysteine Proteases” (Scientific Reports, 2019)", "key": {"papain": {"target": "T1, papain (Carica papaya, UniProt P00784)", "T1 construct": "native commercial enzyme (Sigma)", "T1 sequence (P00784 134-345)": "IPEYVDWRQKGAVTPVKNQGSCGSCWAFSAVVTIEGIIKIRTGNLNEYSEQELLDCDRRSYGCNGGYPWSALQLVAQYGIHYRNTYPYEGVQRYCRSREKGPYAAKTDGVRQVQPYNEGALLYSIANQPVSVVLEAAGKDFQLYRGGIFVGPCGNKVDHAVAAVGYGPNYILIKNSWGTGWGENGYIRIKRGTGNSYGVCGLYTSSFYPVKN", "assay": "RP-HPLC of released AMC", "type": "biochemical", "conditions": "pH 4.8 acetate, 37 °C, 100 µM substrate, cysteine; medium also held H2O2, hemin/chloroquine"}, "cathepsin B": {"target": "T2, cathepsin B (Bos taurus, UniProt P07688)", "T2 construct": "gene CTSB; native commercial enzyme from bovine spleen (Sigma)", "assay": "RP-HPLC of released AMC", "type": "biochemical", "conditions": "100 µM substrate, 37 °C, cysteine, globin, H2O2; hemin/chloroquine incubation medium"}}, "note": "Residues, ends and D or L forms follow the SMILES beside them. *: point of attachment. AMC = Cc1cc(=O)oc2cc(N*)ccc12; Cbz = O=C(OCc1ccccc1)*"}
{"smiles": "Cc1cc(=O)oc2cc(NC(=O)[C@H](CCCNC(=N)N)NC(=O)[C@H](Cc3ccccc3)NC(=O)OCc3ccccc3)ccc12", "note": "[Z-Phe-Arg-AMC] (Cbz-Phe-Arg-{AMC})", "values": [{"measurement": "RP-HPLC of released AMC", "setting": "papain", "result": "papain, ficin and cathepsin-B using Z-Phe-Arg-AMC peptide"}, {"measurement": "RP-HPLC of released AMC", "setting": "cathepsin B", "result": "papain, ficin and cathepsin-B using Z-Phe-Arg-AMC peptide"}]}
